Assay results from PubChem BioAssay (NCI).
Several values for one entry are separate records, joined by “and”; a condition that tells them apart may be missing. Equal entries are not always repeated.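 Cultured in 96-well plates, cells were exposed to test compound for 48 hours across five concentrations. GI50 marks 50% less growth. The concentration for full growth arrest is given as TGI.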

Tests used:
Assay in all cases: DTP human tumour cell line panel, 48 h
[1] = system: DMS 114 small cell lung
[2] = system: MOLT-4 leukemia
[3] = system: HCC-2998 colon
[4] = system: CAKI-1 renal
[5] = system: M14 melanoma
[6] = system: IGROV1 ovarian
[7] = system: HT29 colon
[8] = system: M19-MEL melanoma
[9] = system: UACC-62 melanoma
[10] = system: ACHN renal

SMILES	TGI [1]	GI50 [2]	TGI [2]	GI50 [3]	TGI [3]	TGI [4]	GI50 [5]	TGI [5]	TGI [6]	GI50 [7]	TGI [7]	TGI [8]	GI50 [9]	TGI [9]	GI50 [10]	TGI [10]
CC(C)=CCC(OC(=O)C=C(C)C)C1=CC(=O)c2c(O)ccc(O)c2C1=O (configuration not stated)	3.03 µM	0.182 µM and 0.0424 µM	1.29 µM and 1.42 µM	12.7 µM	26.7 µM and 6.44 µM	3.12 µM and 2 µM	3.51 µM	9.57 µM	4.42 µM	2.49 µM	8.41 µM and 4.43 µM	1.87 µM	1.67 µM	3.1 µM and 2.4 µM	0.605 µM	2.53 µM
Cc1ccc(S(=O)(=O)c2ccccc2[N+](=O)[O-])cc1	> 100 µM		> 100 µM		> 100 µM	> 100 µM		> 100 µM	> 100 µM		> 100 µM	> 100 µM		> 100 µM		> 100 µM
CCCC(=O)N[C@H]1C2C3CC4C5CC(C42)C1(C)C53 (some centres not stated)			> 100 µM		> 100 µM	> 100 µM		> 100 µM	> 100 µM		> 100 µM	> 100 µM		> 100 µM		> 100 µM
N/N=C1\C(=O)N(c2ccc(Cl)cc2Cl)C(=O)C(=O)C1c1nc2ccccc2o1 (configuration not stated)	> 100 µM		> 100 µM		> 100 µM	> 100 µM		> 100 µM	> 100 µM		> 100 µM	> 100 µM		> 100 µM		> 100 µM
C[Si](C)(C)/C=C\CCO	> 100 µM		> 100 µM		> 100 µM			> 100 µM	> 100 µM		> 100 µM	> 100 µM		> 100 µM		> 100 µM
CC(C)Cc1ccc(C(C)CC2=CCC(CN(C)C)C2=O)cc1 (configuration not stated)	10.9 µM		5.8 µM		17 µM	3.28 µM		17.2 µM	24 µM		17.5 µM	13.8 µM		23 µM		30.4 µM
Cc1cccc(C)c1NC(=O)CCc1nc(=S)[nH][nH]1	> 100 µM		> 100 µM		> 100 µM	> 100 µM		> 100 µM	> 100 µM			> 100 µM		> 100 µM		> 100 µM
c1ccc2c(c1)oc1ccc3nsnc3c12	> 100 µM		> 100 µM		> 100 µM	> 100 µM		> 100 µM	> 100 µM		> 100 µM	> 100 µM		> 100 µM		> 100 µM
CC1CCSC(N(C(=O)N(C)c2ccccc2)c2ccccc2)=N1 (configuration not stated)	> 100 µM		> 100 µM		> 100 µM	> 100 µM		> 100 µM	> 100 µM		> 100 µM	> 100 µM		> 100 µM		> 100 µM
O=C1CC(c2[nH]nc3ccccc23)C(=O)N1c1ccccc1 (configuration not stated)	> 100 µM		> 100 µM		> 100 µM	> 100 µM		> 100 µM	> 100 µM		> 100 µM	> 100 µM		> 100 µM		> 100 µM
COC(=O)CC(NC(=O)OCc1ccccc1)C(C(=O)OCc1ccccc1)C(C)(OC)OC (configuration not stated)	91.7 µM		33 µM		> 100 µM			> 100 µM	> 100 µM		> 100 µM	> 100 µM		42.3 µM		> 100 µM
CN1CCc2c1nc(-c1ccc(Cl)cc1)c1c2N(C)CC1	34.3 µM		31.4 µM		65 µM	29.9 µM		20.4 µM	> 100 µM		45.4 µM	> 100 µM		25.7 µM		55.6 µM
COc1ccc(CCn2c(=O)c3ccccc3n(C)c2=O)cc1	> 100 µM		> 100 µM		> 100 µM	> 100 µM		> 100 µM	> 100 µM		> 100 µM	> 100 µM		> 100 µM		> 100 µM
Cc1c(NC(=S)NC(=O)c2ccc([N+](=O)[O-])cc2)c(=O)n(-c2ccccc2)n1C	> 100 µM		> 100 µM		> 100 µM	> 100 µM		> 100 µM	> 100 µM		> 100 µM	> 100 µM		> 100 µM		> 100 µM
COC(=O)c1c2c(cc3c1CC1(Cc4cc5c(c(C(C)=O)c4C1)CCC5)C3)CCC2 (configuration not stated)	> 100 µM		> 100 µM		> 100 µM	> 100 µM		> 100 µM	> 100 µM		> 100 µM	> 100 µM		> 100 µM		> 100 µM
